Laboratory results reported in patent publication US4702863A, “Indoaniline and indophenol compounds, a process for their preparation, dyeing compositions containing them and a hair-dyeing process” (L'Oreal, priority 1983, dated 1987).

How the values were obtained:
Salmonella Typhimurium [1] = assay: Ames test on Salmonella Typhimurium, with or without an S9 mix activated with Arochlor; format: cell-based; settings: strains TA 100, TA 98 and TA 1538; with or without an S9 mix (Arochlor activation)
Text: Compounds of formula (I), in hair-dyeing, are substantially innocuous.

Salmonella Typhimurium [2] = settings: Selects-Proton Magnetic Resonance, page 1, volume 18, 1981, number 95: 75096 f; cited from earlier work

With `COC1=CC(=Nc2ccc(N)cc2)C(N)=CC1=O` [[(4'-amino)phenyl]-2-amino-5-methoxy-1,4-benzoquinoneimine] the “mutagenicity in the Ames test” value (Salmonella Typhimurium [1]) was “highly mutagenic”.
For `COC1=CC(=Nc2ccc(N)c(C)c2)C(N)=CC1=O` [[(4'-amino-3'-methyl)phenyl]-2-amino-5-methoxy-1,4-benzoquinoneimine], the “mutagenicity in the Ames test” value (Salmonella Typhimurium [1]) is given as “highly mutagenic” and the “mutagenic action disclosed in Chemical Abstracts” value (Salmonella Typhimurium [2]) is given as “highly mutagenic”.
